Source: paper PMC3622158 (Photochemistry and photobiology, 2013)

Assays:
[1] = system: red blood cells (RBCs); experiment: Fluorescence and bright field microscopy of RBCs and ghosts; type: cell-based; conditions: Figure 2A; for association with RBCs prior to irradiation (fluorescence distribution): RBCs incubated with compound, fluorescence microscopy; for morphology of RBCs incubated with compound before irradiation: bright field microscopy
[2] = in aqueous solution; standards of the RNO assay; cited from earlier work
[3] = system: red blood cells (RBCs); experiment: Photohemolysis assay of fluorescently labeled CPPs; type: cell-based; conditions: singlet oxygen quencher/inhibitor added to TMR-TAT and RBCs; Figure 1B
[4] = system: red blood cells (RBCs)

For CC1=C(CCC(=O)O)c2cc3[nH]c(cc4nc(cc5[nH]c(cc1n2)c(C)c5C(C)O)C(C)=C4C(C)O)c(C)c3CCC(=O)O (stereo not shown) [HP, hematoporphyrin], the “association with RBCs prior to irradiation (fluorescence distribution)” value [1] was “strong fluorescence signals were present on the surface of the cells” and the “morphology of RBCs incubated with compound before irradiation” value [1] was “formed echinocytes”.
For O=C1OC2(c3cc(I)c(O)c(I)c3Oc3c2cc(I)c(O)c3I)c2c(Cl)c(Cl)c(Cl)c(Cl)c21 [RB, Rose Bengal], the “association with RBCs prior to irradiation (fluorescence distribution)” value [1] is listed as “strong fluorescence signals were present on the surface of the cells”, the “morphology of RBCs incubated with compound before irradiation” value [1] is listed as “formed echinocytes” and the “singlet oxygen quantum yield” value [2] is listed as 0.76.
For CC(/C=C/C=C(\C)C(=O)O)=C\C=C\C=C(C)\C=C\C=C(/C)C(=O)O [crocetin], the “effect on TMR-TAT mediated photohemolysis” value [3] was “significant decrease in photohemolytic activity”.
In the case of O=C1OC2(c3ccccc31)c1cc(Br)c(O)c(Br)c1Oc1c2cc(Br)c(O)c1Br [eosin Y], the “singlet oxygen quantum yield” value [2] is listed as 0.57.
With CC(=O)Oc1c(C)c(C)c2c(c1C)CCC(C)(CCC[C@H](C)CCC[C@H](C)CCCC(C)C)O2 (stereo partly drawn) [tocopherol, α-tocopheryl acetate] the “effect on TMR-TAT mediated photohemolysis” value [3] was “significant decrease in photohemolytic activity”.
With GRRRRRRRRR-NH2 [R9] the “lysis with RB and peptide co-incubated” value ([4]; RB and R9 co-incubated during irradiation, same conditions, data not shown) was 93±3% and the “lytic effect of peptides alone” value ([4]; in the dark or when cells were irradiated without RB present) was “not lytic by themselves”.
